From patent US20110212078A1, “SYNTHESIS AND USE OF HETEROCYCLIC ANTIBACTERIAL AGENTS” (priority 2008, published 2011) come the findings set out here.

The target of the test is T1, LpxC enzyme (Escherichia coli, UniProt P0A725).
T1 sequence (P0A725 1-305): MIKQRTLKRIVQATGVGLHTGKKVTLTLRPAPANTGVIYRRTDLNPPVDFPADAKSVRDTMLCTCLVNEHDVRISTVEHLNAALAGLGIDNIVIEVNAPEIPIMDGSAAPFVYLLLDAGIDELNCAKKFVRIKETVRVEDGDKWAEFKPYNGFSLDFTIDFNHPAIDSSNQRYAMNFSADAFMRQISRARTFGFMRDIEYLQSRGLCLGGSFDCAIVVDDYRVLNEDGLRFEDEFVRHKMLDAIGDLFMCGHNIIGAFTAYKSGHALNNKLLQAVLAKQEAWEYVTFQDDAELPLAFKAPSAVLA
Put plainly: standard LpxC assay (RapidFire high-throughput mass spectrometry). Particulars: 0.2 nM LpxC enzyme, 1.0 μM UDP-3-O-(R-3-hydroxymyristoyl)-N-acetylglucosamine, 60 minutes at room temperature; read-out: E. coli IC50. In kind it is biochemical. The protocol: The standard LpxC assay consists of 0.2 nM LpxC enzyme, 1.0 μM UDP-3-O—(R-3-hydroxymyristoyl)-N-acetylglucosamine, and test compound, in assay buffer and 2% DMSO. Assay buffer is comprised of 25 mM HEPES, pH 7.3, 150 mM NaCl, 2.0 mM DTT, and 0.01% BSA. The enzyme reaction is carried out in a 96-well assay plate, in a final volume of […]. Solutions of test compounds are prepared in 100% DMSO. Reaction additions, in order, are (1) 2.0 μL compound solution, (2) 80 μL of assay buffer, (3) […] of 10 μM UDP-3-O—(R-3-hydroxymyristoyl)-N-acetylglucosamine (in assay buffer) and, (4) 10 μL of LpxC enzyme (20 nM in assay buffer) to initiate the reaction. In positive control reactions, addition (1) has 2.0 μL of 100% DMSO (without compound); these reactions are used as the total signal (TSB) value. Reactions are incubated at room temperature for 60 minutes when 10 μL of 1 N HCl is added to stop the reaction. The plate is shaken by hand for 10 seconds to ensure complete quenching. Assay plates are sealed with foil tape, and stored at −80° C. for 24-48 hr prior to analysis.
The concentrations of substrate and product in the reaction mixtures are determined with BioTrove's proprietary RapidFire™ high-throughput mass spectrometry (HTMS). Assay mixtures are partially purified with reverse phase chromatography, where they are washed with water containing 5 mM ammonium formate and eluted onto the mass spectrometer in 80% acetonitrile, 20% water, and 5 mM ammonium formate. The mass spectrometry peak areas of the substrate and product are measured to determine the concentration of these analytes. The assay signal is the percentage of substrate that is converted to product. Percent inhibition, % I, in test samples is determined from the following equation: […]
Using this method, the following E. coli IC50 (nM) data were obtained for selected Compounds of Formula (I);
A word on the IC50: it is the concentration that inhibits the measured activity by half. As to `C[C@@H](O)[C@@H](C(=O)NO)N1Cc2cc(C#Cc3ccccc3)ccc2C1=O` [Compound 11], the IC50 is less than 5 µM. For `C[C@@H](O)[C@@H](C(=O)NO)N1Cc2cc(Br)ccc2C1=O` [Compound 12] the value was less than 5 µM; for `C[C@@H](O)[C@@H](C(=O)NO)N1Cc2cc(C#Cc3ccc(-c4ccccc4)cc3)ccc2C1=O` [Compound 13], less than 0.05 µM; for `C[C@@H](O)[C@@H](C(=O)NO)N1Cc2cc(C#Cc3cccc(-c4ccccc4)c3)ccc2C1=O` [Compound 14], less than 5 µM.

`C[C@@H](O)[C@@H](C(=O)NO)N1Cc2ccc(C#Cc3ccccc3)cc2C1=O` [Compound 20]: the IC50 is less than 5 µM. Take `C[C@@H](O)[C@@H](C(=O)NO)N1Cc2ccc(Cl)cc2C1=O` [Compound 21]: the IC50 is less than 5 µM. In the case of `C[C@@H](O)[C@@H](C(=O)NO)N1Cc2cc(-c3ccccc3)ccc2C1=O` [Compound 26] it was less than 5 µM; in that of `C[C@@H](O)[C@@H](C(=O)NO)N1Cc2cc(Cc3ccc(-c4ccccc4)cc3)ccc2C1=O` [Compound 31], less than 0.05 µM. Regarding `C[C@@H](O)[C@@H](C(=O)NO)N1Cc2cc(-c3ccc(-c4ccccc4)cc3)ccc2C1=O` [Compound 32], the IC50 was less than 0.05 µM. For `C[C@@H](O)[C@@H](C(=O)NO)N1Cc2cc(-c3ccc(C#Cc4ccccc4)cc3)ccc2C1=O` [Compound 36] the value was less than 0.05 µM; for `C[C@@H](O)[C@@H](C(=O)NO)N1Cc2cc(N3CCN(c4ccc(C(=O)Cc5ccccc5)cc4)CC3)ccc2C1=O` [Compound 50], less than 5 µM; for `C[C@@H](O)[C@@H](C(=O)NO)N1Cc2cc(N3CCN(c4ccccc4)CC3)ccc2C1=O` [Compound 52], less than 5 µM. Turning to `C[C@@H](O)[C@@H](C(=O)NO)N1Cc2cc(N3CCC(c4ccc(-c5ccccc5)cc4)CC3)ccc2C1=O` [Compound 53], the IC50 is less than 5 µM. As to `CC(O)C(C(=O)NO)n1[nH]c2cc(C#Cc3ccccc3)ccc2c1=O` (stereo not shown) [Compound 65], the IC50 was less than 5 µM.

Take `CC(O)C(C(=O)NO)N1C(=O)c2ccc(C#Cc3ccccc3)cc2C1=O` (stereo not shown) [Compound 74]: the IC50 is less than 5 µM. In the case of `CC(O)C(C(=O)NO)N1C(=O)c2ccc(-c3ccccc3)cc2C1=O` (stereo not shown) [Compound 79] it was less than 5 µM; in that of `CC(O)C(C(=O)NO)N1C(=O)c2ccc(Br)cc2C1=O` (stereo not shown) [Compound 80], less than 5 µM.

Consider `C[C@@H](O)[C@@H](C(=O)NO)N1CC2CN(Cc3ccc(C#Cc4ccccc4)cc3)CCN2C1=O` (stereo partly shown) [Compound 88], for which the IC50 was less than 5 µM. For `C[C@@H](O)[C@@H](C(=O)NO)N1CC2CN(c3ccc(C#Cc4ccccc4)cc3)CCN2C1=O` (stereo partly shown) [Compound 91] the value was less than 5 µM.
